Laboratory results: paper PMC3203319 (The Journal of antibiotics, 2011)
Converted amounts (≈) assume the structure as drawn.

How the values were obtained:
[1] = tested on: MRSA; assay: MIC assay with 50% human serum added; format: cell-based, S. aureus; settings: fold shift in MIC with 50% human serum
[2] = tested on: E.faecalis (VR) ATCC 700802; assay: MIC, Gram-positive panel; format: cell-based; settings: Enterococcus faecalis, ATCC700802
[3] = Plasma stability; format: in vitro ADME; settings: monkey
[4] = tested on: MSSA; assay: MIC assay with 50% mouse serum added; format: cell-based, S. aureus; settings: fold shift in MIC with 50% mouse serum
[5] = tested on: Gram-positive bacteria; assay: MBC analysis, expanded panel of Gram-positive bacteria; format: cell-based; settings: MIC = MBC
[6] = tested on: S.marcescens ACH-0009; assay: MIC, Gram-negative panel; format: cell-based; settings: Serratia marcescens, ACH0009
[7] = tested on: S.aureus NY 2746; assay: MIC, MRSA panel; format: cell-based; settings: Staphylococcus aureus
[8] = Liver microsome stability; format: in vitro ADME; settings: human liver microsomes (HLM)
[9] = tested on: E.faecium ATCC 49032; assay: MIC, Gram-positive panel; format: cell-based; settings: Enterococcus faecium, ATCC49032
[10] = Plasma stability; format: in vitro ADME; settings: dog
[11] = tested on: S. aureus ATCC 29213; assay: Time-kill study; format: cell-based; settings: 2, 4 and 8 times the MIC, 24 h time course
[12] = tested on: S.aureus COL; assay: MIC, MRSA panel; format: cell-based; settings: Staphylococcus aureus
[13] = tested on: S.haemolyticus (MS) ACH-0013; assay: MIC, Gram-positive panel; format: cell-based; settings: Staphylococcus haemolyticus
[14] = tested on: S.aureus ACH-0231; assay: MIC, MRSA panel; format: cell-based; settings: Staphylococcus aureus
[15] = tested on: S.aureus ATCC 33591; assay: MIC, MRSA panel; format: cell-based; settings: Staphylococcus aureus, ATCC33591|MRSA
[16] = tested on: E.faecalis ATCC 29212; assay: MIC, Gram-positive panel; format: cell-based; settings: Enterococcus faecalis, ATCC29212
[17] = Stability in dosing vehicle; format: physicochemical; settings: potassium phosphate at pH 7.4, after 4 h
[18] = tested on: S.aureus BSA 643; assay: MIC, MRSA panel; format: cell-based; settings: Staphylococcus aureus
[19] = tested on: S.epidermidis (FQR) ACH-0082; assay: MIC, Gram-positive panel; format: cell-based; settings: Staphylococcus epidermidis
[20] = tested on: S.aureus BK 2384; assay: MIC, MRSA panel; format: cell-based; settings: Staphylococcus aureus
[21] = tested on: S.aureus ACH-0232; assay: MIC, MRSA panel; format: cell-based; settings: Staphylococcus aureus
[22] = Liver S9 fraction stability; format: in vitro ADME; settings: rat liver S9 fraction (RLS9)
[23] = tested on: P.aeruginosa FQR 467296; assay: MIC, Gram-negative panel; format: cell-based; settings: Pseudomonas aeruginosa, FQR467296
[24] = tested on: A.baumanii ATCC 9957; assay: MIC, Gram-negative panel; format: cell-based; settings: Acinetobacter baumannii, ATCC9957
[25] = tested on: E.coli FQR 362265; assay: MIC, Gram-negative panel; format: cell-based; settings: Escherichia coli, FQR362265
[26] = Plasma stability; format: in vitro ADME; settings: human
[27] = tested on: E.cloacae ACH-0008; assay: MIC, Gram-negative panel; format: cell-based; settings: Enterobacter cloacae, ACH0008
[28] = Plasma stability; format: in vitro ADME; settings: rat
[29] = tested on: DNA, RNA, and protein synthesis in S. aureus ATCC 29213; assay: Macromolecular synthesis assays; format: cell-based; settings: 10× MIC, 20 min incubation
[30] = tested on: C. albicans; assay: MIC against yeast; format: cell-based; settings: Candida albicans, read-out: MIC C. albicans
[31] = Plasma stability; format: in vitro ADME; settings: mouse
[32] = Liver S9 fraction stability; format: in vitro ADME, human
[33] = Liver microsome stability; format: in vitro ADME; settings: rat liver microsomes (RLM)
[34] = tested on: E.coli 1GC2; assay: MIC, Gram-negative panel; format: cell-based; settings: Escherichia coli
[35] = tested on: S.typhimurium ATCC 14028; assay: MIC, Gram-negative panel; format: cell-based; settings: Salmonella enterica, ATCC14028|TYPHIMURIUM
[36] = tested on: S.aureus BSA 678; assay: MIC, MRSA panel; format: cell-based; settings: Staphylococcus aureus
[37] = tested on: rat red blood cell; assay: Hemolysis, rat red blood cell assay; format: cell-based; settings: rat red blood cells, data not shown
[38] = tested on: K.pneumoniae ATCC 13883; assay: MIC, Gram-negative panel; format: cell-based; settings: Klebsiella pneumoniae, ATCC13883
[39] = tested on: E.faecium (VR) ATCC 700221; assay: MIC, Gram-positive panel; format: cell-based; settings: Enterococcus faecium, ATCC700221
[40] = tested on: S.epidermidis (MS) SE42; assay: MIC, Gram-positive panel; format: cell-based; settings: Staphylococcus epidermidis

Q: Which “Fold Shift Human” value [1] does the source give for `O=[N+]([O-])c1ccc(-c2nc3cccc(O)c3[nH]2)o1` [Compound 3e, 2-(5-Nitrofuran-2-yl)-3H-benzo[d]imidazole-4ol] here?
A: 4 ×

Q: And the MIC [2]?
A: 1 µg/mL (≈ 4.08 µM)

Q: What about the half-life [3] of the same molecule?
A: 2 h

Q: What about the “Fold Shift Mouse” value [4] of the same molecule?
A: 4 ×

Q: And the “bactericidal activity by MBC analysis” value [5]?
A: bactericidal

Q: And the MIC [6]?
A: 16 µg/mL (≈ 65.3 µM)

Q: What about the MIC [7] of the same molecule?
A: 2 µg/mL (≈ 8.16 µM)

Q: What about the “time to complete clearance” value [8] of the same molecule?
A: ≤ 30 min

Q: And the MIC [9]?
A: 4 µg/mL (≈ 16.3 µM)

Q: What about the half-life [10] of the same molecule?
A: 5.6 h

Q: What about the Time-kill result [11] of the same molecule?
A: bactericidal

Q: And the MIC [12]?
A: 1 µg/mL (≈ 4.08 µM)

Q: What about the MIC [13] of the same molecule?
A: 0.5 µg/mL (≈ 2.04 µM)

Q: And the MIC [14]?
A: 2 µg/mL (≈ 8.16 µM)

Q: And the MIC [15]?
A: 2 µg/mL (≈ 8.16 µM)

Q: What about the MIC [16] of the same molecule?
A: 1 µg/mL (≈ 4.08 µM)

Q: And the “stability in dosing vehicle” value [17]?
A: no degradation

Q: And the MIC [18]?
A: 1 µg/mL (≈ 4.08 µM)

Q: And the MIC [19]?
A: 4 µg/mL (≈ 16.3 µM)

Q: What about the MIC [20] of the same molecule?
A: 1 µg/mL (≈ 4.08 µM)

Q: What about the MIC [21] of the same molecule?
A: 2 µg/mL (≈ 8.16 µM)

Q: And the clearance time [22]?
A: < 30 min

Q: What about the MIC [23] of the same molecule?
A: > 64 µg/mL

Q: What about the MIC [24] of the same molecule?
A: > 64 µg/mL

Q: And the MIC [25]?
A: 4 µg/mL (≈ 16.3 µM)

Q: And the half-life [26]?
A: 4.5 h

Q: And the MIC [27]?
A: 4 µg/mL (≈ 16.3 µM)

Q: What about the half-life [28] of the same molecule?
A: 3.9 h

Q: What about the “inhibition of DNA, RNA and protein synthesis” value [29] of the same molecule?
A: significantly inhibited DNA, RNA, and protein at nearly equivalent levels

Q: What about the MIC [30] of the same molecule?
A: > 64 µg/mL

Q: What about the half-life [31] of the same molecule?
A: 3.6 h

Q: What about the remaining ([32]; HLS9, after 60 min of incubation) of the same molecule?
A: 13%

Q: What about the half-life ([32]; human, liver S9 fraction) of the same molecule?
A: 0.21 h

Q: And the “time to complete clearance” value [33]?
A: ≤ 30 min

Q: And the MIC [34]?
A: 16 µg/mL (≈ 65.3 µM)

Q: What about the MIC [35] of the same molecule?
A: 4 µg/mL (≈ 16.3 µM)

Q: And the MIC [36]?
A: 1 µg/mL (≈ 4.08 µM)

Q: And the hemolysis [37]?
A: negative

Q: And the MIC [38]?
A: 8 µg/mL (≈ 32.6 µM)

Q: What about the MIC [39] of the same molecule?
A: 4 µg/mL (≈ 16.3 µM)

Q: And the MIC [40]?
A: 1 µg/mL (≈ 4.08 µM)

Q: Which results are given for `CN[C@H](CC(C)C)C(=O)N[C@H]1C(=O)N[C@@H](CC(N)=O)C(=O)N[C@H]2C(=O)N[C@H]3C(=O)N[C@H](C(=O)N[C@H](C(=O)O)c4cc(O)cc(O)c4-c4cc3ccc4O)[C@H](O)c3ccc(c(Cl)c3)Oc3cc2cc(c3O[C@@H]2O[C@H](CO)[C@@H](O)[C@H](O)[C@H]2O[C@H]2C[C@](C)(N)[C@H](O)[C@H](C)O2)Oc2ccc(cc2Cl)[C@H]1O` [Vancomycin, reference compound]?
A: MIC [7]: 1 µg/mL (≈ 0.69 µM); MIC [12]: 1 µg/mL (≈ 0.69 µM); MIC [14]: 2 µg/mL (≈ 1.38 µM); MIC [15]: 1 µg/mL (≈ 0.69 µM); MIC [18]: 1 µg/mL (≈ 0.69 µM); MIC [20]: 1 µg/mL (≈ 0.69 µM); MIC [21]: 1 µg/mL (≈ 0.69 µM); MIC [36]: 1 µg/mL (≈ 0.69 µM)
